Activity calls are given as the source filed them. The rule behind the calls is not given here.
Assays:
[1] = molecular target: T1, Protein cereblon/Cyclin-dependent kinase 9 (Homo sapiens, UniProt P50750+Q96SW2); experiment: PROTAC activity at CRBN/CDK9 in human NCI-H446 cells assessed as induction of CDK9 degradation at 10 nM by Western blot analysis relative to control; assay type: cell-based
[2] = molecular target: T1, Protein cereblon/Cyclin-dependent kinase 9; experiment: In vivo PROTAC activity at CRBN/CDK9 in female BALB/c nude mouse xenografted with human NCI-H446 cells assessed as induction of CDK9 degradation in tumor at 25 mg/kg, po measured after 6 to 12 hrs by Western blot analysis; assay type: functional, organism-based; conditions: time 6-12 hrs
[3] = molecular target: T1, Protein cereblon/Cyclin-dependent kinase 9; experiment: PROTAC activity at CRBN/CDK9 in human NCI-H69 cells assessed as induction of CDK9 degradation at 10 nM measured within 3 hrs by Western blot analysis; assay type: cell-based
[4] = molecular target: T1, Protein cereblon/Cyclin-dependent kinase 9; experiment: PROTAC activity at CRBN/CDK9 in human NCI-H69 cells assessed as induction of CDK9 degradation at 10 nM by Western blot analysis; assay type: cell-based; conditions: time 0.5-12 hrs
[5] = molecular target: T1, Protein cereblon/Cyclin-dependent kinase 9; experiment: PROTAC activity at CRBN/CDK9 in human NCI-H69 cells assessed as induction of CDK9 degradation by measuring reduction in half-life incubated upto 24 hrs in presence of cycloheximide by Western blot analysis; assay type: cell-based
[6] = molecular target: T1, Protein cereblon/Cyclin-dependent kinase 9; experiment: PROTAC activity at CRBN/CDK9 in human NCI-H69 cells assessed as induction of CDK9 degradation preincubated with thalidomide for 2 hrs followed by compound addition and measured after 3 hrs by Western blot analysis; assay type: cell-based
[7] = molecular target: T1, Protein cereblon/Cyclin-dependent kinase 9; experiment: PROTAC activity at CRBN/CDK9 in human NCI-H69 cells assessed as induction of CDK9 degradation preincubated with AT-7519 for 2 hrs followed by compound addition and measured after 3 hrs by Western blot analysis; assay type: cell-based
NCI-H446 [8] = experiment: Antiproliferative activity against human NCI-H446 cells assessed as reduction in cell viability incubated for 72 hrs in presence of thalidomide by celltiter-Glo assay; assay type: functional, cell-based
[9] = molecular target: T1, Protein cereblon/Cyclin-dependent kinase 9; experiment: PROTAC activity at CRBN/CDK9 in human NCI-H446 cells assessed as increase in CDK9 ubiquitination preincubated with MG132 for 2 hrs followed by compound addition and measured after 3 hrs by co-immunoprecipitation analysis; assay type: cell-based
[10] = molecular target: CDK9/cyclin T1 (Homo sapiens) (UniProt O60563+P50750); experiment: Inhibition of CDK9/Cyclin T1 (unknown origin) at 10 nM relative to control; assay type: protein-complex assay
[11] = molecular target: CDK12/Cyclin K (Homo sapiens) (UniProt O75909+Q9NYV4); experiment: Inhibition of CDK12/Cyclin K (unknown origin) at 10 nM relative to control; assay type: protein-complex assay
[12] = molecular target: T2, Cyclin-dependent kinase 5/CDK5 activator 1 (Homo sapiens) (UniProt Q00535+Q15078); experiment: Inhibition of CDK5/p25NCK (unknown origin) at 10 nM relative to control; assay type: protein-complex assay
[13] = molecular target: CDK4/Cyclin D3 (Homo sapiens) (UniProt P11802+P30281); experiment: Inhibition of CDK4/cyclin D3 (unknown origin) at 10 nM relative to control; assay type: protein-complex assay
[14] = molecular target: Cyclin-dependent kinase 4/cyclin D1 (Homo sapiens) (UniProt P11802+P24385); experiment: Inhibition of CDK4/cyclin D1 (unknown origin) at 10 nM relative to control; assay type: protein-complex assay
[15] = molecular target: T2, Cyclin-dependent kinase 5/CDK5 activator 1 (Homo sapiens); experiment: Inhibition of CDK5/p35NCK (unknown origin) at 10 nM relative to control; assay type: protein-complex assay
[16] = molecular target: CDK6/cyclin D1 (Homo sapiens) (UniProt P24385+Q00534); experiment: Inhibition of CDK6/cyclin D1 (unknown origin) at 10 nM relative to control; assay type: protein-complex assay
[17] = molecular target: CDK6/cyclin D3 (Homo sapiens) (UniProt P30281+Q00534); experiment: Inhibition of CDK6/cyclin D3 (unknown origin) at 10 nM relative to control; assay type: protein-complex assay
[18] = molecular target: CDK1/Cyclin E (Homo sapiens) (UniProt P06493+P24864); experiment: Inhibition of CDK1/cyclin E1 (unknown origin) at 10 nM relative to control; assay type: protein-complex assay
[19] = molecular target: Cyclin-dependent kinase 9 (Homo sapiens) (UniProt P50750); experiment: Inhibition of CDK9-related signaling in human NCI-H69 cells assessed as reduction in c-MYC expression level at 0.5 to 10 nM incubated for 24 hrs by Western blot analysis; assay type: cell-based; conditions: dose 0.5-10 nM
NCI-H446 [20] = experiment: Inhibition of colony formation in human NCI-H446 cells at 2 to 4 nM incubated for 8 days by crystal violet staining based analysis; assay type: functional, cell-based; conditions: dose 2-4 nM, time 8.0 day
DMS-114 = experiment: Inhibition of colony formation in human DMS-114 cells at 2 to 4 nM incubated for 8 days by crystal violet staining based analysis; assay type: functional, cell-based; conditions: dose 2-4 nM, time 8.0 day
NCI-H69 [21] = experiment: Cell cycle arrest in human NCI-H69 cells assessed as increase in G1 phase population incubated for 36 hrs by PI staining based flow cytometric analysis; assay type: functional; conditions: dose 0.5-4 nM
NCI-H69 [22] = experiment: Induction of apoptosis in human NCI-H69 cells at 1 nM by microscopic analysis; assay type: functional, cell-based
NCI-H446 [23] = experiment: Induction of apoptosis in human NCI-H446 cells incubated for 36 hrs by Annexin V-FITC/PI staining based flow cytometric analysis; assay type: functional, cell-based; conditions: dose 1-8 nM
NCI-H69 [24] = experiment: Induction of apoptosis in human NCI-H69 cells assessed as decrease in MCL-1 expression incubated for 36 hrs by Western blot analysis; assay type: functional, cell-based
NCI-H69 [25] = experiment: Induction of apoptosis in human NCI-H69 cells assessed as decrease in BCL-2 expression incubated for 36 hrs by Western blot analysis; assay type: functional, cell-based
NCI-H69 [26] = experiment: Induction of apoptosis in human NCI-H69 cells assessed as increase in cleaved PARP level incubated for 36 hrs by Western blot analysis; assay type: functional, cell-based
NCI-H69 [27] = experiment: Induction of apoptosis in human NCI-H69 cells assessed as increase in cleaved caspase-3 level incubated for 36 hrs by Western blot analysis; assay type: functional, cell-based
NCI-H69 [28] = experiment: Induction of apoptosis in human NCI-H69 cells assessed as increase in p53 level incubated for 36 hrs by Western blot analysis; assay type: functional, cell-based
DMS-53 = experiment: Inhibition of cell invasion in human DMS-53 cells assessed as decrease in number of cells passing through upper chamber at 2to 4 nM incubated for 48 hrs by crystal violet staining based microscopic analysis; assay type: functional
NCI-H446 [29] = experiment: Antitumor activity against human NCI-H446 cells xenografted in female NU-NU mouse model assessed as increase in cleaved caspase-3 expression in tumor at 12.5 to 25 mg/kg, po administered once daily for 15 days by immunohistochemical staining based analysis; assay type: functional, organism-based; conditions: dose 12.5-25 mg/kg, time 15.0 day
[30] = test system: Small cell lung cancer cell line; experiment: Antitumor activity against LDI-0060-200770 patient derived Small cell lung cancer cell line xenografted in BALB/c nude mouse assessed as reduction in tumor growth at 25 mg/kg, po administered once daily for 7 days; assay type: functional, organism-based; conditions: Homo sapiens, time 7.0 day
[31] = test system: Small cell lung cancer cell line; experiment: Antitumor activity against LDI-0025-362145 patient derived Small cell lung cancer cell line xenografted in BALB/c nude mouse assessed as reduction in tumor growth at 25 mg/kg, po administered once daily for 7 days; assay type: functional, organism-based; conditions: Homo sapiens, time 7.0 day
[32] = molecular target: Cyclin-dependent kinase 2/cyclin E1 (Homo sapiens) (UniProt P24864+P24941); conditions: dose 10.0 nM

T1 sequence (P50750 whole entry, looked up): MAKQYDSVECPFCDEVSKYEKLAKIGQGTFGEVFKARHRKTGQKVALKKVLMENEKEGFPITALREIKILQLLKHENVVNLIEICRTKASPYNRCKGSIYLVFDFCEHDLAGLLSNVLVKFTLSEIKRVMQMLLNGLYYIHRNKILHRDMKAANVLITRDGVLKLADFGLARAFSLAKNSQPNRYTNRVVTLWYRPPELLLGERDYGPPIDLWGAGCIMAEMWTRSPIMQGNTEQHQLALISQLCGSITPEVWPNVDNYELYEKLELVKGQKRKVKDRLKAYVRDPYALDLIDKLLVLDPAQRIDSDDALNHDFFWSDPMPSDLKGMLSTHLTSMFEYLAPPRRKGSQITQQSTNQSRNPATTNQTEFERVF
T1 sequence (Q96SW2 whole entry, looked up): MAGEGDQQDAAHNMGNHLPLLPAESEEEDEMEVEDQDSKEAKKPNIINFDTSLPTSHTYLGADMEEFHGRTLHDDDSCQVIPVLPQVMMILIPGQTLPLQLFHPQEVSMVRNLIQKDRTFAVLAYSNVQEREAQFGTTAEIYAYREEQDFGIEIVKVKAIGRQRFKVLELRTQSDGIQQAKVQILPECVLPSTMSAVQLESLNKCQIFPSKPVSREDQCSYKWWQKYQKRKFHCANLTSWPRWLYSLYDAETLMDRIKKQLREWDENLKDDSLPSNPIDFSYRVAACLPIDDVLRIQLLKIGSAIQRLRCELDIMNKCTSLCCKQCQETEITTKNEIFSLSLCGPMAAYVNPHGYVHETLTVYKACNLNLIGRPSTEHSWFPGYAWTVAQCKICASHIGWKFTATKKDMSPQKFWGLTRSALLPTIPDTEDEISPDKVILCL
T2 sequence (Q00535 whole entry): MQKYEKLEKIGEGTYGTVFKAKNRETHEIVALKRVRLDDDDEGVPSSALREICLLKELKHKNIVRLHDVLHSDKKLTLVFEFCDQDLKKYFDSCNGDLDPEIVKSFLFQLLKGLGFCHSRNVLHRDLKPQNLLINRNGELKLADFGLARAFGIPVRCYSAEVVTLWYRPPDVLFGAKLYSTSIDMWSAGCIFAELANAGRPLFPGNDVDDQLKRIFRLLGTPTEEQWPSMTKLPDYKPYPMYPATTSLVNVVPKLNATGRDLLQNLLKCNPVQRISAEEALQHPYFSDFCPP
T2 sequence (Q15078 99-307 partner limits assumed): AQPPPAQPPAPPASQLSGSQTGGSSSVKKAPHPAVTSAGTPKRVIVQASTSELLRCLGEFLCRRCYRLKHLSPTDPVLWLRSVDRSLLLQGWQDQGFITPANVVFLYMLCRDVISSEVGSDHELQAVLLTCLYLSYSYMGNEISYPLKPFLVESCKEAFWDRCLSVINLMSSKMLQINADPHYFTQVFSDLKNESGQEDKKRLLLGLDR
Sequence of CDK1/Cyclin E (Homo sapiens) (P06493 whole entry, looked up): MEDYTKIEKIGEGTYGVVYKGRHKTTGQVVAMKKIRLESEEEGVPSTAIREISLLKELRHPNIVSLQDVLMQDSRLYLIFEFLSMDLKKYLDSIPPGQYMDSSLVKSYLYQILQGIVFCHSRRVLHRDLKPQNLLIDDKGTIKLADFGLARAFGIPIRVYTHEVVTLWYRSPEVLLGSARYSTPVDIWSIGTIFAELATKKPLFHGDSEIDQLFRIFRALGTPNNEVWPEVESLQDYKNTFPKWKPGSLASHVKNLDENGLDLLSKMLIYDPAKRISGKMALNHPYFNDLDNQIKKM
Sequence of CDK1/Cyclin E (Homo sapiens) (P24864 whole entry, looked up): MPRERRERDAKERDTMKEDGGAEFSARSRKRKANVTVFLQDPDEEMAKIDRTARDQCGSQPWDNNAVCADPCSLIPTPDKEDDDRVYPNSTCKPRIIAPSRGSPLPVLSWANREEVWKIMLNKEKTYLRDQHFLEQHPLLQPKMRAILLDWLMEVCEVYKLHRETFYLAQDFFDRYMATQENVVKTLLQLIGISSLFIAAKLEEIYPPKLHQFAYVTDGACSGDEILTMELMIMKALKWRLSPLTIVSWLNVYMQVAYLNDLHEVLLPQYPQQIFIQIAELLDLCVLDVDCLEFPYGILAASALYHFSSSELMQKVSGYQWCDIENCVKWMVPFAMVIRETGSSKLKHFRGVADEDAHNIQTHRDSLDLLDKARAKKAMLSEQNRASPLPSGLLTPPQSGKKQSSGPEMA
Sequence of Cyclin-dependent kinase 9 (Homo sapiens) (P50750 whole entry): as the sequence (P50750 whole entry, looked up) above
Sequence of CDK12/Cyclin K (Homo sapiens) (O75909 whole entry, looked up): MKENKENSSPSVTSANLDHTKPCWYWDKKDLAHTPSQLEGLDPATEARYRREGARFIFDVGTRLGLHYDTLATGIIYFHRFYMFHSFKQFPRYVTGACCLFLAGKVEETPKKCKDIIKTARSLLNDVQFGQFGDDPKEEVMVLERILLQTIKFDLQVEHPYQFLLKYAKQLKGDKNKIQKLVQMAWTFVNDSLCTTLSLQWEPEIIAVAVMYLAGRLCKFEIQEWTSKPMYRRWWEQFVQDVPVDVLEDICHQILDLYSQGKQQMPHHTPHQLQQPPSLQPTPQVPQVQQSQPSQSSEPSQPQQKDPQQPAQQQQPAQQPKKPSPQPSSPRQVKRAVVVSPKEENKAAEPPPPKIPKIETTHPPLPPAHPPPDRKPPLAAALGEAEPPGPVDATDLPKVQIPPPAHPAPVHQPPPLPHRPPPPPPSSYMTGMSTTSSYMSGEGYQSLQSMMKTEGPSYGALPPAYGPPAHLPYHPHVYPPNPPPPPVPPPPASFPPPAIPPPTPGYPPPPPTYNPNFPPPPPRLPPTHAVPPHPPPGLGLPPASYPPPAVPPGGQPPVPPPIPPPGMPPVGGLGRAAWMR
Sequence of CDK12/Cyclin K (Homo sapiens) (Q9NYV4 whole entry, looked up): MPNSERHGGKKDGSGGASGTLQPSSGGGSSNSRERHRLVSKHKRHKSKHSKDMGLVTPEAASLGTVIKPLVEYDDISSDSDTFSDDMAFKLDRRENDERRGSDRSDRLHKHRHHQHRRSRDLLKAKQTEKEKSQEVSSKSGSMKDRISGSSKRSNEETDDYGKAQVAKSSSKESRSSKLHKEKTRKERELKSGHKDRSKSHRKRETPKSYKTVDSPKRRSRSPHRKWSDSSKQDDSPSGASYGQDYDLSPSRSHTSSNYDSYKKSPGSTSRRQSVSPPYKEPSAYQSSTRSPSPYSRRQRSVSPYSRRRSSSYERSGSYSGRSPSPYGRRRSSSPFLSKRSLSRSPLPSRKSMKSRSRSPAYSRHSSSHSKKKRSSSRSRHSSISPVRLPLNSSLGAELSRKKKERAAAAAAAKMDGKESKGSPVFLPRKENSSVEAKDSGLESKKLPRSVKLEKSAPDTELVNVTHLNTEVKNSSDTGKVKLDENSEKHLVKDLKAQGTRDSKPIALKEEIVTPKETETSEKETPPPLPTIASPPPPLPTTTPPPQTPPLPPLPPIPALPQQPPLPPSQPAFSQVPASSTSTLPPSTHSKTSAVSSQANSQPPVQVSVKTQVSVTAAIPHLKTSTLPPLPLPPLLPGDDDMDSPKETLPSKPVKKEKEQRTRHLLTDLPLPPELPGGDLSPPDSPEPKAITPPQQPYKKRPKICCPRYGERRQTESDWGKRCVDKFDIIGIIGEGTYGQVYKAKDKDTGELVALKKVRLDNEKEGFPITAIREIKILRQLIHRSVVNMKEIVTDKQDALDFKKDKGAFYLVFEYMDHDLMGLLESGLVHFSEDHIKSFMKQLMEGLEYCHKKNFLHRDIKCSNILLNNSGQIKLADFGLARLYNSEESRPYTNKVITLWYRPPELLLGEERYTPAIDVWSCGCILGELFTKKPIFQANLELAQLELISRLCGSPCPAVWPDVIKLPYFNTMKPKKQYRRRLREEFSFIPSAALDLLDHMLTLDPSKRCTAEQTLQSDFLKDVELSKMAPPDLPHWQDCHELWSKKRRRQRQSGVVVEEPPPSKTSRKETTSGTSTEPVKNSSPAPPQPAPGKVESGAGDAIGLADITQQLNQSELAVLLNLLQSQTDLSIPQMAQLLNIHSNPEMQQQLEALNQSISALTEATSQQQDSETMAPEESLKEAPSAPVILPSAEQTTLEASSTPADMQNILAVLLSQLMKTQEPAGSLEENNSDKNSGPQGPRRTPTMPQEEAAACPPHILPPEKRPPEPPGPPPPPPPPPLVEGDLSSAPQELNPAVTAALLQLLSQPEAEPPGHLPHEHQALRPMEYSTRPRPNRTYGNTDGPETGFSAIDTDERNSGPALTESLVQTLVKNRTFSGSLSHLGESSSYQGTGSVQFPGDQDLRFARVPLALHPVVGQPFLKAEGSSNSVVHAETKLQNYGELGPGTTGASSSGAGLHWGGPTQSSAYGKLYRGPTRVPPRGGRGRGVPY

## O=C1CCC(Nc2cccc(N3CCN(CC4CCN(CC(=O)N5CCC(NC(=O)c6n[nH]cc6NC(=O)c6c(Cl)cccc6Cl)CC5)CC4)CC3)c2)C(=O)N1 (centres undefined)
[1]
  Activity: 93.4%
[2]
  Activity: Active
[3]
  Activity: Active
[4]
  Activity: Time-dependent-effect
[5]
  Activity: Active
[6]
  Activity: inactive
[7]
  Activity: inactive
NCI-H446 [8]
  Activity: inactive
[9]
  Activity: Active
[10]
  inhibition: 95%
[11]
  inhibition: 38%
[12]
  inhibition: 52%
[13]
  inhibition: 55%
[14]
  inhibition: 37%
[15]
  inhibition: 45%
[16]
  inhibition: 34%
[17]
  inhibition: 15%
[18]
  inhibition: 24%
[19]
  inhibition: Active
NCI-H446 [20]
  inhibition: Active
DMS-114
  inhibition: Active
NCI-H69 [21]
  Activity: Dose-dependent-effect
NCI-H69 [22]
  Activity: Active
NCI-H446 [23]
  Activity: Dose-dependent-effect
NCI-H69 [24]
  Activity: Dose-dependent-effect
NCI-H69 [25]
  Activity: Dose-dependent-effect
NCI-H69 [26]
  Activity: Dose-dependent-effect
NCI-H69 [27]
  Activity: Dose-dependent-effect
NCI-H69 [28]
  Activity: Dose-dependent-effect
DMS-53
  inhibition: Active
NCI-H446 [29]
  Activity: Active
[30]
  Activity: Active
[31]
  Activity: Active
[32]
  inhibition: 35%

From ChEMBL document CHEMBL6121063, “Identification of a Potent and Selective CDK9 Degrader as a Targeted Therapeutic Option for the Treatment of Small-Cell Lung Cancer” (J Med Chem, 2025)
